{"source": "patent US20060128695A1", "about": "“Cyclic nucleotide phosphodiesterase inhibitors, preparation and uses” (NEURO3D, priority 2002, published 2006)", "note": "Where a name gives a salt, the structure may show the parent alone.", "data": [{"target": "T1, PDE2 (Bos taurus, UniProt P14099)", "T1 construct": "PDE2 was prepared from bovine endothelial cells by the same methods; endogenous in cells; host or cells: bovine endothelial cells", "T1 sequence (P14099 1-921)": "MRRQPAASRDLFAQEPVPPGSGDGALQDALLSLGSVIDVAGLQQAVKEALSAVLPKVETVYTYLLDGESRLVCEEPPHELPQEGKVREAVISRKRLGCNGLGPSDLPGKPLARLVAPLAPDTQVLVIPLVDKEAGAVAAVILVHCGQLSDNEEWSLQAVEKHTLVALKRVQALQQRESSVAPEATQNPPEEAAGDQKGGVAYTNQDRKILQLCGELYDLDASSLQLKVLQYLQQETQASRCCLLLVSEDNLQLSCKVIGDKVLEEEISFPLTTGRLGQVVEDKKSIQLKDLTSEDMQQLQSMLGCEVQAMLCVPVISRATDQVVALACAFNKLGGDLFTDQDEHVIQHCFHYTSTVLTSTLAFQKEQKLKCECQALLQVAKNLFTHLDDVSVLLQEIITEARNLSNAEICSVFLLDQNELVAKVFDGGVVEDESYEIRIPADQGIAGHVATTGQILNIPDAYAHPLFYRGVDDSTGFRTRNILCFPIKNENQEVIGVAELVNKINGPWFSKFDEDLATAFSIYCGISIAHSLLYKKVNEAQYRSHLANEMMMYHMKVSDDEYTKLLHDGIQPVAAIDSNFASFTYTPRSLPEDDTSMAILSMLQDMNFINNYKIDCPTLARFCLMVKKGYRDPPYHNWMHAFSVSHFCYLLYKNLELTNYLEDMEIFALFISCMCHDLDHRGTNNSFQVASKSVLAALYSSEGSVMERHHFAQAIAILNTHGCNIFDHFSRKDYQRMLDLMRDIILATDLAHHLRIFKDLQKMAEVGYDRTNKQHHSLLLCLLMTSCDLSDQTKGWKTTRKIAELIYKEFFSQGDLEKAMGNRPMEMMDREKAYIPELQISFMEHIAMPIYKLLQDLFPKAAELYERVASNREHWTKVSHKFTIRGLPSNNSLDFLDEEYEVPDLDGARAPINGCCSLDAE", "test": "Inhibition of PDE2, radioenzymatic phosphodiesterase assay", "type": "biochemical, bovine", "conditions": "not given", "units": {"IC50": "µM"}, "values": [{"compound": "COc1cc2c(cc1OC)N(C)C(=O)CN=C2c1cccc(C=O)c1", "note": "[Compound 17l, 5-(3-formylphenyl)-7,8-dimethoxy-1-methyl-1,3-dihydro-1,4-benzodiazepin-2-one]", "IC50": 5}, {"compound": "COc1cc2c(cc1OC)N(C)C(=O)CN=C2c1cccc(C)c1", "note": "[Compound 17k, 7,8-dimethoxy-1-methyl-5-(3-methylphenyl)-1,3-dihydro-1,4-benzodiazepin-2-one]", "IC50": 3.7}, {"compound": "COc1cc2c(cc1OC)N(C)C(=O)CN=C2c1cccc(C#CCNC(=O)OC(C)(C)C)c1", "note": "[Compound 6a, Tert-butyl-3-[3-(7,8-dimethoxy-1-methyl-2-oxo-2,3-dihydro-1H-1,4-benzodiazepin-5-yl)phenyl]propynylcarbamate]", "IC50": 8.4}, {"compound": "COc1cc2c(cc1OC)N(C)C(=O)CN=C2c1cccc(CNCc2ccccc2)c1", "note": "[Compound 17m, 5-[3-(benzylaminomethyl)phenyl]-7,8-dimethoxy-1-methyl-1,3-dihydro-2H-1,4-benzodiazepin-2-one hydrochloride]", "IC50": 4.8}, {"compound": "COc1cc2c(cc1OC)N(C)C(=O)CN=C2c1ccc(Cl)c(Cl)c1", "note": "[Compound 17j, 5-(3,4-dichlorophenyl)-7,8-dimethoxy-1-methyl-1,3-dihydro-1,4-benzodiazepin-2-one]", "IC50": 7}, {"compound": "CCN1C(=O)CN=C(c2cccc(C(N)=O)c2)c2cc(OC)c(OC)cc21", "note": "[Compound 5g, 3-(1-ethyl-7,8-dimethoxy-2-oxo-2,3-dihydro-1H-1,4-benzodiazepin-5-yl)benzamide]", "IC50": 24.6}, {"compound": "COc1ccc2c(c1)NC(=O)CN=C2c1cccc(C#N)c1", "note": "[Compound 28a, 3-(8-methoxy-2-oxo-2,3-dihydro-1H-1,4-benzodiazepin-5-yl)benzonitrile]", "IC50": 65}, {"compound": "COc1cc2c(cc1OC)N(C)C(=O)C(C)N=C2c1cccc(C(N)=O)c1", "note": "(stereo not shown) [Compound 5j, 3-(7,8-dimethoxy-1,3-dimethyl-2-oxo-2,3-dihydro-1H-1,4-benzodiazepin-5-yl) benzamide]", "IC50": 4.5}, {"compound": "COc1cc2c(cc1OC)N(C)C(=O)CN=C2c1cncc2ccccc12", "note": "[Compound 17f, 5-(4-isoquinolinyl)-7,8-dimethoxy-1-methyl-1,3-dihydro-1,4-benzodiazepin-2-one]", "IC50": 4.7}, {"compound": "COc1cc2c(cc1OC)N(C)C(=O)CN=C2c1cccc(C#N)c1", "note": "[Compound 4a, 3-(7,8-dimethoxy-1-methyl-2-oxo-2,3-dihydro-1H-1,4-benzodiazepin-5-yl)-benzonitrile]", "IC50": 6.7}, {"compound": "COc1cc2c(c(Br)c1OC)C(c1cccc(C#N)c1)=NCC(=O)N2C", "note": "[Compound 24b, 3-(6-bromo-7,8-dimethoxy-1-methyl-2-oxo-2,3-dihydro-1H-1,4-benzodiazepin-5-yl)benzonitrile]", "IC50": 3.3}, {"compound": "COc1cc2c(cc1OC)N(C)C(=O)CN=C2c1cccc(C(=O)NCc2ccccc2)c1", "note": "[Compound 36b, N-benzyl-3-(7,8-dimethoxy-1-methyl-2-oxo-2,3-dihydro-1H-1,4-benzodiazepin-5-yl) benzamide]", "IC50": 3.1}]}, {"target": "T1, PDE2", "test": "Inhibition of PDE2, radioenzymatic phosphodiesterase assay", "type": "biochemical, bovine", "conditions": "1 μM cyclic AMP; PDE2 from bovine endothelial cells; read-out: PDE2 IC50", "units": {"IC50": "µM"}, "values": [{"compound": "Tert-butyl-3-[5-(cyanophenyl)-(7,8-dimethoxy-1-methyl-2-oxo-2,3-dihydro-1H-1,4-benzodiazepin-9-yl)phenyl]prop-2-ynylcarbamate [Compound 25c]", "IC50": 3.4}]}, {"target": "T1, PDE2", "test": "Inhibition of PDE2, radioenzymatic phosphodiesterase assay", "type": "biochemical, bovine", "conditions": "10 μM test compound; PDE2 from bovine endothelial cells", "units": {"PDE2 percentage inhibition at 10 μM": "%"}, "values": [{"compound": "Methyl (2E)-3-[5-(cyanophenyl)-7,8-dimethoxy-1-methyl-2-oxo-2,3-dihydro-1H-1,4-benzodiazepin-9-yl)phenyl]acrylate [Compound 25d]", "PDE2 percentage inhibition at 10 μM": 2.4}, {"compound": "COc1ccc(CN2C(=O)CN=C(c3cccc(C#N)c3)c3cc(OC)c(OC)cc32)cc1", "note": "[Compound 4e, 3-[7,8-dimethoxy-l-(4-methoxybenzyl)-2-oxo-2,3-dihydro-1H-1,4-benzodiazepin-5-yl]-benzonitrile]", "PDE2 percentage inhibition at 10 μM": 13.9}, {"compound": "COc1cc2c(cc1OC)N(Cc1ccc(Cl)c(Cl)c1)C(=O)CN=C2c1cccc(C#N)c1", "note": "[Compound 4d, 3-[1-(3,4-chlorobenzyl)-7,8-dimethoxy-2-oxo-2,3-dihydro-1H-1,4-benzodiazepin-5-yl]-benzonitrile]", "PDE2 percentage inhibition at 10 μM": 47.6}]}, {"target": "T1, PDE2", "test": "Inhibition of PDE2, radioenzymatic phosphodiesterase assay", "type": "biochemical, bovine", "conditions": "10 μM test compound; PDE2 from bovine endothelial cells; read-out: PDE2 percentage inhibition at 10 μM", "units": {"inhibition at 10 µM": "%"}, "values": [{"compound": "COc1cc2c(cc1OC)N(C)C(=O)CN=C2c1cccc(C(=O)O)c1", "note": "[Compound 35a, 3-(7,8-dimethoxy-1-methyl-2-oxo-2,3-dihydro-1H-1,4-benzodiazepin-5-yl)benzoic acid]", "inhibition at 10 µM": 26}, {"compound": "COc1cc2c(cc1OC)N(C)C(=O)CN=C2c1cccc(CNC(C)=O)c1", "note": "[Compound 8b, N-[3-(7,8-dimethoxy-1-methyl-2-oxo-2,3-dihydro-1H-1,4-benzodiazepin-5-yl)benzyl]acetamide]", "inhibition at 10 µM": 27.2}]}, {"target": "T1, PDE2", "test": "Inhibition of PDE2, radioenzymatic phosphodiesterase assay", "type": "biochemical, bovine", "conditions": "read-out: PDE2 percentage inhibition at 10 μM", "units": {"inhibition at 10 µM": "%"}, "values": [{"compound": "COc1cc2c(c(Br)c1OC)NC(=O)CN=C2c1ccccc1", "note": "[Compound 28f, 9-bromo-7,8-dimethoxy-5-phenyl-1,3-dihydro-2H-1,4-benzodiazepin-2-one]", "inhibition at 10 µM": 13.5}, {"compound": "CCCN1C(=O)CN=C(c2cccc(C#N)c2)c2cc(OC)c(OC)cc21", "note": "[Compound 4l, 3-(7,8-dimethoxy-1-propyl-2-oxo-2,3-dihydro-1H-1,4-benzodiazepin-5-yl)benzonitrile]", "inhibition at 10 µM": 72.1}, {"compound": "COc1cc2c(cc1OC)N(C)C(=O)CN=C2c1cccc(-c2cccc(C#N)c2)c1", "note": "[Compound 6l, 3′-(7,8-dimethoxy-1-methyl-2-oxo-2,3-dihydro-1H-1,4-benzodiazepin-5-yl)-1,1′-biphenyl-3-carbonitrile]", "inhibition at 10 µM": 77.5}, {"compound": "CCCN1C(=O)CN=C(c2cccc(C(F)(F)F)c2)c2cc(OC)c(OC)cc21", "note": "[Compound 4r, 5-[3-(trifluoromethyl)phenyl]-7,8-dimethoxy-1-n-propyl-1,3-dihydro-1,4-benzodiazepin-2-one]", "inhibition at 10 µM": 34}, {"compound": "COc1cc2c(cc1OC)N(Cc1ccccc1)C(=O)CN=C2c1cccc(C(N)=O)c1", "note": "[Compound 5h, 3-(1-benzyl-7,8-dimethoxy-2-oxo-2,3-dihydro-1H-1,4-benzodiazepin-5-yl)benzamide]", "inhibition at 10 µM": 0}, {"compound": "COc1cccc2c1C(c1ccccc1)=NCC(=O)N2", "note": "[Compound 28d, 6-methoxy-5-phenyl-1,3-dihydro-2H-1,4-benzodiazepin-2-one]", "inhibition at 10 µM": 4.7}, {"compound": "COc1cc2c(c(-c3ccccc3)c1OC)C(c1cccc(C#N)c1)=NCC(=O)N2C", "note": "[Compound 25b, 3-(7,8-dimethoxy-1-methyl-2-oxo-6-phenyl-2,3-dihydro-1H-1,4-benzodiazepin-5-yl)benzonitrile]", "inhibition at 10 µM": 22.9}, {"compound": "COc1cc2c(cc1OC)N(Cc1ccc(C(F)(F)F)cc1)C(=O)CN=C2c1cccc(C#N)c1", "note": "[Compound 4i, 3-{7,8-dimethoxy-2-oxo-1-[4-(trifluoromethyl)benzyl]-2,3-dihydro-1H-1,4-benzodiazepin-5-yl}-benzonitrile]", "inhibition at 10 µM": 15.7}, {"compound": "COc1cc2c(cc1OC)N(C)C(=O)C(C)N=C2c1cccc(C(F)(F)F)c1", "note": "(stereo not shown) [Compound 7c, 7,8-dimethoxy-1,3-dimethyl-5-(3-trifluoromethylphenyl)-1,3-dihydro-2H-1,4-benzodiazepin-2-one]", "inhibition at 10 µM": 41}, {"compound": "CCCC1N=C(c2cccc(CO)c2)c2cc(OC)c(OC)cc2N(C)C1=O", "note": "(stereo not shown) [Compound 17h, 7,8-dimethoxy-5-(3-hydroxymethylphenyl)-1-methyl-3-propyl-1,3-dihydro-2H-1,4-benzodiazepin-2-one]", "inhibition at 10 µM": 9.2}, {"compound": "CCN1C(=O)CN=C(c2cccc(C(F)(F)F)c2)c2cc(OC)c(OC)cc21", "note": "[Compound 4q, 7,8-dimethoxy-1-ethyl-5-[3-(trifluoromethyl)phenyl]-1,3-dihydro-2H-1,4-benzodiazepin-2-one]", "inhibition at 10 µM": 32}, {"compound": "COc1cc2c(cc1OC)N(C)C(=O)CN=C2c1cccc(-c2cccc(C(N)=O)c2)c1", "note": "[Compound 6o, 3′-(7,8-dimethoxy-1-methyl-2-oxo-2,3-dihydro-1H-1,4-benzodiazepin-5-yl)-1,1′-biphenyl-3-carboxamide]", "inhibition at 10 µM": 79.3}, {"compound": "COc1ccc2c(c1)NC(=O)CN=C2c1cccc(C#N)c1", "note": "[Compound 28a, 3-(8-methoxy-2-oxo-2,3-dihydro-1H-1,4-benzodiazepin-5-yl)benzonitrile]", "inhibition at 10 µM": 52.5}, {"compound": "COc1cc2c(cc1OC)N(C)C(=O)C(C)N=C2c1cccc(C#N)c1", "note": "(stereo not shown) [Compound 7d, 3-(7,8-dimethoxy-1,3-dimethyl-2-oxo-2,3-dihydro-1H-1,4-benzodiazepin-5-yl)benzonitrile]", "inhibition at 10 µM": 33.8}, {"compound": "COc1ccc2c(c1)C(c1cccc(C#N)c1)=NCC(=O)N2", "note": "[Compound 28c, 3-(7-methoxy-2-oxo-2,3-dihydro-1H-1,4-benzodiazepin-5-yl)benzonitrile]", "inhibition at 10 µM": 46.5}, {"compound": "COc1cc2c(cc1OC)N(C)C(=O)CN=C2c1cccc(-c2nc(-c3ccccc3)cs2)c1", "note": "[Compound 9b, 7,8-dimethoxy-1-methyl-5-[3-(4-phenyl-1,3-thiazol-2-yl)phenyl]-1,3-dihydro-2H-1,4-benzodiazepin-2-one]", "inhibition at 10 µM": 91.4}]}]}
